Experimental data as given in patent US6357163B1, “Use of nucleic acid analogues in diagnostics and analytical procedures” (priority 1991, dated 2002).
Values joined by “and” are separate entries in the source; they are usually repeats but may differ in a detail not shown here. Equal values may be shown once.

How the values were obtained:
5′-AAA-AAA-AAA-AAA-AAA = test: Melting temperature (Tm) of hybrid with oligodeoxyribonucleotide; assay type: binding; settings: oligo 14 (5′-AAA-AAA-AAA-AAA-AAA); 10 mM phosphate, 1 mM EDTA, 140 mM NaCl, pH 7.2
From the text: (§1) 2. Upon formation of DNA duplexes (dsDNA) from single strand DNA, the extinction coefficient decreases (hypochromicity). Thus, the denaturing of DNA can be followed by measuring changes in the absorbance, for example, as a function of […], the temperature where 50% of a duplex has disappeared to give single strands.
(§2) Duplexes were formed from the single-stranded oligodeoxyribonucleotides and the PNAs listed below. Typically 0.3 OD260 of the T-rich strand was hybridized with 1 equivalent of the other strand by heating to 90° C. for 5 min, cooling to room temperature and kept for 30 min and finally stored in a refrigerator at 5° C. for at least 30 min. The buffers used were all 10 mM in phosphate and 1 mM in EDTA. The low salt buffer contained no sodium chloride, whereas the medium salt buffer contained 140 mM NaCl and the high salt buffer 500 mM NaCl. The pH of all the buffers was 7.2. The melting temperature of the hybrids were determined on a Gilford Response apparatus. The following extinction coefficients were used A: 15.4 ml/μmol.cm; T: 8.8; G: 11.7 and C: 7.3 for both normal oligonucleotides and PNA. The melting curves were recorded in steps of 0.5 C/min. The Tm were determined from the maximum of the 1st derivative of the plot of A260 vs temperature.
14. 5′-AAA-AAA-AAA-AAA-AAA (See SEQ ID NO:20)

5′-AAA-AGA-AGA-A = test: as above; assay type: binding; settings: oligo 7 (5′-AAA-AGA-AGA-A); 10 mM phosphate, 1 mM EDTA, 140 mM NaCl, pH 7.2
From the text: as §1, §2
7. 5′-AAA-AGA-AGA-A (See SEQ ID NO:13)

5′-AAG-AAG-AAA-A = test: as above; assay type: binding; settings: oligo 5 (5′-AAG-AAG-AAA-A); 10 mM phosphate, 1 mM EDTA, 140 mM NaCl, pH 7.2
From the text: as §1, §2
5. 5′-AAG-AAG-AAA-A (See SEQ ID NO:9)

(dA)5(dG)(dA)4 = test: as above; assay type: binding; settings: oligo 4 (5′-AAA-AAG-AAA-A), 10 mM phosphate, 1 mM EDTA, pH 7.2; for Tm, Medium Salt: 140 mM NaCl; for Tm, High Salt: 500 mM NaCl; for Tm, Low Salt: no sodium chloride
From the text: as §1, §2

(dA)10 = test: as above; assay type: binding; settings: for Tm, Medium Salt / Tm, High Salt / Tm, Low Salt: oligo 2 (5′-AAA-AAA-AAA-A), 10 mM phosphate, 1 mM EDTA, pH 7.2; for Tm, Medium Salt: 140 mM NaCl; for Tm, High Salt: 500 mM NaCl; for Tm, Low Salt: no sodium chloride; for Tm: DNA (dA)10
From the text: as §1, §2

32P-end-labelled dA10 = test: Binding to dA10, gel retardation (PAGE); settings: for binding to the corresponding dA10: summary statement, illustrated by gel retardation and Tm
Method: (§3) 1. As shown in Example 56 below PNA-oligonucleotide complexes will migrate slower than the single stranded oligonucleotide upon electrophoresis in polyacrylamide gels. Consequently, such experiments were performed with Acr^1-(Taeg)10-Lys-NH2 and ^32P-end-labelled dA10.
The sample was cooled in ice (15 min) and analyzed by gel electrophoresis in polyacrylamide (PAGE). To 10 μl of the sample was added 2 μl 50% glycerol, 5μl TBE (TBE=90 mM Tris-borate, 1 mM EDTA, pH 8.3), and the sample was analysed by PAGE (15% acrylamide, 0.5% bisacrylamide) in TBE buffer at 4° C. A 10 μl portion of the sample was lyophilized and redissolved in 10 μl 80% formamide, 1 TBE, heated to 90° C. (5 min), and analyzed by urea/PAGE (15% acrylamide, 0.5% bisacrylamide, 7 M urea) in TBE. [^32P]-containing DNA bands were visualized by autoradiography using intensifying screens and Agfa Curix RPI X-ray films exposed at −80° C. for 2 h.
Oligonucleotides were synthesized on a Biosearch 7500 DNA synthesizer, labelled with γ[^32P]-ATP (Amersham, 5000 Ci/mmol) and polynucleotide kinase, and purified by PAGE using standard techniques (Maniatis et al. (1986): A laboratory manual, Cold Spring Harbor Laboratories).
(§4) In FIG. 11a and in FIG. 11b, the 5′-^32P-labelled oligonucleotide 1 is 5′-GATCCA10G. This was incubated in the absence (lanes 1 and 4) or presence of Acr-T10-Lys-NH2 (in lanes 2 and 5, 25 pmol; lanes 3 and 6, 75 pmol) and also in the absence (lanes 1 to 3) or presence (lanes 4 to 6) of “oligo-2” which was 5′-GATCCT10G. 5′-^32P-labelled oligo 2 was incubated in the absence (lane 7) or presence of the same PNA (lane 8, 25 pmol; lane 9, 75 pmol) and analysed by PAGE as described above in detail.
The results in FIG. 11a show retardation of the ssDNA as it is hybridised by PNA (lanes 1 to 3) and the ability of PNA to compete with a DNA oligonucleotide, for labelled complementary oligonucleotide (lanes 4 to 6). The intensity of the band attributable to dsDNA grows faster as the PNA concentration is raised and is replaced by a band representing the slower moving PNA-DNA hybride. […]

32P-end-labelled dT10 = test: Gel retardation (PAGE), control experiment; assay type: binding; settings: same conditions
Method: as §3, §4
The results in FIG. 11a show retardation of the ssDNA as it is hybridised by PNA (lanes 1 to 3) and the ability of PNA to compete with a DNA oligonucleotide, for labelled complementary oligonucleotide (lanes 4 to 6). The intensity of the band attributable to dsDNA grows faster as the PNA concentration is raised and is replaced by a band representing the slower moving PNA-DNA hybride.

[1] = tested on: mix (5′-GATCACGCGTATACGCGT); test: Binding of 5′-32P-endlabeled oligonucleotide to PNA-Sepharose; settings: DNA mix; PNA on solid support (CNBr-Sepharose); 16 hr at 20° C. in TE
[2] = tested on: A9G (5′-TCGACAAAAAGAAAAG); test: as above; settings: DNA A9G; PNA on solid support (CNBr-Sepharose); 16 hr at 20° C. in TE
[3] = tested on: A8G2 (5′-GAAGAAGAAACTGAC); test: as above; settings: DNA A8G2; PNA on solid support (CNBr-Sepharose); 16 hr at 20° C. in TE
[4] = tested on: A10 (5′-GATCCAAAAAAAAAAG); assay type: binding
5′-AAA-AAA-AA = test: Melting temperature (Tm) of hybrid with oligodeoxyribonucleotide; assay type: binding; settings: oligo 1 (5′-AAA-AAA-AA), 10 mM phosphate, 1 mM EDTA, pH 7.2
From the text: as §1, §2
1. 5′-AAA-AAA-AA (See SEQ ID NO:12)

[5] = tested on: 32P-dsDNA (A10/T10) target, pT10 fragment; test: Stability of PNA-dsDNA complexes; assay type: binding; settings: PNA bound to A10/T10 dsDNA target; heated 10 min with competing GATCCA10G, S1 nuclease
Method: Complexes between PNA-Tn and ^32P-dsDNA (A10/T10) target were formed (60 min, 37° C.). The complexes were then incubated at the desired temperature in the presence of excess oligo-dA10 for 10 min, cooled to RT and probed with KMnO4.
A mixture of 200 cps ^32P-pT10 fragment (as in Example 65), 0.5 μg calf thymus DNA and 300 ng of the desired PNA (either T10-LysNH2, T8-LysNH2 or T6-LysNH2) was incubated in 100 μl 200 mM NaCl, 50 mM Na-acetate, pH 4.5, 1 mM ZnSO4 for 60 min at 37° C. A 2 μg portion of oligonucleotide GATCCA10G was added to compete with the PNA for the labelled oligonucleotide and each sample was heated for 10 min at the temperature indicated, cooled in ice for 10 min and warmed to 20° C. 50 U of S1 nuclease was added and the quantity of radio-activity liberated as single nucleotides was measured.

RNA-A (poly rA) = test: Melting of PNA-RNA hybrid; assay type: binding; settings: hybrid with RNA-A (poly rA); cannot be measured
Method: (§5) The hybrid formed between RNA-A (poly rA) and PNA-T10-Lys-NH2 melts at such high temperature that it cannot be measured (>90 C). […] Thereafter the sample is heated to 90° C. for 5 min, cooled to room temperature and kept at this temperature for 30 minutes and finally stored at 5° C. for 30 min.

RNA-G = test: Drop in A260 on mixing PNA with RNA; assay type: binding
Method: as §5

RNA-U = test: Drop in A260 on mixing PNA with RNA; assay type: binding
Method: as §5

RNA-A = test: Drop in A260 on mixing PNA with RNA; assay type: binding
Method: as §5

RNA-C = test: Drop in A260 on mixing PNA with RNA; assay type: binding
Method: as §5

[6] = tested on: A10 target in plasmid pA10KS / pT10KS, transcription by RNA polymerase; test: Inhibition of transcription by PNA; assay type: biochemical
Method: RNA transcripts were visualized by autoradiography. The plasmid used was: Lane 1 to 5; pA10KS (the A10 target is positioned on the transcribed strand). Lane 6 to 10: pT10KS (the A10 target is positioned on the non-transcribed strand). The plasmid was treated with the following restriction enzymes prior to the experiment: Lanes 1, 4, 6 and 9: PyuII; lanes 2, 5, 7 and 10: Xha I; lanes 3 and 8: BamHI. […] If the PNA is bound to the non-transcribed strand of the plasmid, transcription is not arrested.

[7] = A260 before mixing 0.600, heated to 90° C. for 5 min, cooled

## 5′-TTT-TTT-TTT-TTT-TTT [Oligo 13]
5′-AAA-AAA-AAA-AAA-AAA
  Tm, Medium Salt: 39.0 °C

## Ac-TTT-TTT-TTT-T-Lys-NH2 [f]
5′-AAA-AGA-AGA-A
  Tm, Medium Salt: 43.5 °C
5′-AAG-AAG-AAA-A
  Tm, Medium Salt: 46.5 °C
(dA)5(dG)(dA)4
  Tm, Medium Salt: 62.0 °C
(dA)10
  Tm, Medium Salt: 74 °C

## Acr-TTT-TTT-TTT-T-Lys-NH2 [e]
32P-end-labelled dA10; native and denaturing gel conditions
  migration of 32P-end-labelled dA10 in polyacrylamide gel: retarded migration
32P-end-labelled dA10
  binding to the corresponding dA10: very efficient binding
32P-end-labelled dT10
  migration of 32P-end-labelled dT10 in polyacrylamide gel: no retardation
(dA)10
  Tm, Medium Salt: 86.0 °C
  Tm, High Salt: ˜90 °C
  Tm, Low Salt: 84.5 °C

## TTC-TTC-TTT-T-Lys-NH2 [T8C2]
[1]
  % Binding of 32P-oligo to PNA-Sepharose: 14%
[2]
  % Binding of 32P-oligo to PNA-Sepharose: 52%
[3]
  % Binding of 32P-oligo to PNA-Sepharose: 42%
[4]
  % Binding of 32P-oligo to PNA-Sepharose: 15%

## TTT-TTC-TTT-T-Lys-NH2
[1]
  % Binding of 32P-oligo to PNA-Sepharose: 13%
5′-AAA-AGA-AGA-A
  Tm, Medium Salt: 58.0 °C
[2]
  % Binding of 32P-oligo to PNA-Sepharose: 50%
5′-AAG-AAG-AAA-A
  Tm, Medium Salt: 57.5 °C
(dA)5(dG)(dA)4
  Tm, Medium Salt: 72.0 °C
  Tm, High Salt: 72.5 °C
  Tm, Low Salt: 74.5 °C
[3]
  % Binding of 32P-oligo to PNA-Sepharose: 45%

## TTT-TTT-TT-Lys-NH2 [b]
5′-AAA-AAA-AA; 140 mM NaCl
  Tm, Medium Salt: 51.5 °C
5′-AAA-AAA-AA; 500 mM NaCl
  Tm, High Salt: 50.0 °C
5′-AAA-AAA-AA; no sodium chloride
  Tm, Low Salt: 56.0 °C
[5]
  Tm of PNA/DNA complex: 60 °C

## TTT-TTT-TTT-T-Lys-NH2 [H-T10-LysNH2]
[1]
  % Binding of 32P-oligo to PNA-Sepharose: 11%
5′-AAA-AGA-AGA-A
  Tm, Medium Salt: 46.0 °C
[2]
  % Binding of 32P-oligo to PNA-Sepharose: 11%
RNA-A (poly rA)
  melting temperature of hybrid: > 90 C
RNA-G; A260 before mixing 0.600
  A260 After Mixing: 0.514
RNA-G; [7]
  A260 After Mixing and Heating: 0.517
RNA-U; A260 before mixing 0.600
  A260 After Mixing: 0.538
RNA-U; [7]
  A260 After Mixing and Heating: 0.528
RNA-A; A260 before mixing 0.600
  A260 After Mixing: 0.389
RNA-A; [7]
  A260 After Mixing and Heating: 0.360
RNA-C; A260 before mixing 0.600
  A260 After Mixing: 0.540
RNA-C; [7]
  A260 After Mixing and Heating: 0.532
[6]; PNA bound to the non-transcribed strand (pT10KS)
  transcription of RNA: not arrested
[6]; PNA bound to the transcribed strand (pA10KS)
  transcription of RNA: arrested at the PNA binding site
5′-AAG-AAG-AAA-A
  Tm, Medium Salt: 47.0 °C
32P-end-labelled dA10
  binding to the corresponding dA10: very efficient binding
(dA)5(dG)(dA)4
  Tm, Medium Salt: 59.0 °C
  Tm, High Salt: 61.5 °C
  Tm, Low Salt: 60.0 °C
(dA)10; Example 55
  Tm: 73 °C and 73 °C °C
(dA)10; Example 61
  Tm: 73 °C °C
(dA)10
  Tm, Medium Salt: 72.5 °C
  Tm, High Salt: 73.0 °C
  Tm, Low Salt: 73.0 °C
[3]
  % Binding of 32P-oligo to PNA-Sepharose: 11%
[4]
  % Binding of 32P-oligo to PNA-Sepharose: 51%
[5]
  Tm of PNA/DNA complex: > 70 °C
